# Like-named read-outs stand apart in the source and are kept apart here.
# How the values were obtained:
# ACC1 = ACC1 (Homo sapiens (Human), UniProt Q13085); assay: ACC1 enzyme activity assay (ADP-Glo); type: biochemical; settings: ACC1 enzyme 2 nM working solution, room temperature
# Protocol: (§1) Compound preparation: the compounds of the present disclosure prepared in the above examples and the control compound were respectively formulated into 10 mM with DMSO for use.
# (§2) Preparation of 1× reaction buffer (pH=7.4): HEPES stock solutions (1 M), MgCl2 (1 M), BRIJ-35 (10%), potassium citrate buffer (1 M), BSA (10 mg/mL) and DTT (500 mM) were formulated to enzyme reaction buffer containing HEPES (50 mM), MgCl2 (2 mM), BRIJ-35 (0.01%), potassium citrate buffer (2 mM), BSA (50 Gg/mL) and DTT (2 mM).
# 4.5 μL of 2.2×ACC1 enzyme (2 nM) working solution was added to a 384-well plate; and then 0.5 μL of different concentrations of compound were added. The mixture was incubated at room temperature for 15 min.
# (§3) Negative control group: menstruum containing 5% DMSO; positive control group: menstruum containing 100 nM ND-630. The average values of each concentration and the positive and negative controls were calculated, and the standard deviation was calculated. […] The inhibition rate data was fitted by nonlinear regression equation to calculate IC50 of each compound. The nonlinear regression equation was Y=lowest value+(highest value−lowest value)/(1+10^((Log IC50−X)×HillSlope)), among which X is logarithm of the compound concentration and Y is inhibition percent (%).
# ACC2 = ACC2 (Homo sapiens (Human), UniProt O00763); assay: ACC2 enzyme activity assay (ADP-Glo); type: biochemical; settings: ACC2 enzyme 1.1 nM working solution, room temperature
# Protocol: as §1, §2
# The mixture was incubated at room temperature for 15 min.
# as §3
# [1] = Evaluation of compound distribution in rat liver; type: in vivo; settings: male SD rats, single oral 3 mg/kg, 0.25 h after administration; for Kp at 0.25 h: liver/plasma, read-out: Liver/plasma distribution ratio
# Protocol: An acclimation period of 2-3 days was given before the experiments. The rats were fasted for 8-12 h before administration, supplied with water 2 h after administration and foods 4 h after administration.
# 6 mg of the test compound (based on free base) was weighed and added to 20 mL of ethanol-PEG400-saline (10:30:60). The mixture was vortexed for 2 min, and sonicated for 3 min, and then used to prepare a solution of test sample solution with a concentration of 0.3 mg/mL for oral administration. 100 μL of the test sample solution was volumed to 10 ng/mL with methanol, and a control sample of the same concentration was prepared. The concentrations of the test sample and control sample were detected by HPLC, and the accuracy was calculated.
# SD rats were given a single oral administration of 3 mg/kg of test compound at a dose of 10 mL/kg. The rats were bled in femoral artery and ruptured in neck 0.25 h after administration. The liver and blood samples (anticoagulation with heparin sodium) were collected immediately, and placed on ice.
# The homogenate was centrifuged (centrifugation conditions: 8000 rpm/min, 5 min, 4° C.). The supernatant was transferred and subjected to cryopreservation. The supernatant was thawed and centrifuged before injection, and the supernatant was collected and subjected to LC-MS/MS for analyzing the content of the compound in the supernatant sample.
# The collected whole blood sample was placed on ice and centrifuged within 30 min (centrifugation conditions: 8000 rpm/min, 5 min, 4° C.). 100 μL of the upper layer of plasma was transferred, and precipitated with 300 μL of methanol. The mixture was shaken and centrifuged, and diluted with mobile phase. The supernatant was collected and subjected to LC-MS/MS for analyzing the content of the compound in the supernatant sample.
# [2] = test system: Col1A1 gene expression in TGF-β1-induced LX-2 cells; assay: Inhibition of human hepatic stellate cells LX-2 activation in vitro (Col1A1 gene expression, real-time PCR); type: cell-based; settings: TGFβ1 10 ng/mL, 24 h drug treatment, compound concentration of the tabulated value not stated (30, 10, 3 μM prepared)
# Protocol: The compounds of the present disclosure prepared in the above examples and the control compound were respectively formulated into 60 mM with DMSO for use.
# DMSO stock solution of the compounds of the examples of the present disclosure and the control compound were sequentially diluted with culture medium to 30 μM, 10 μM, and 3 μM. TGF-β1 was dissolved to […] with 10 mM citric acid buffer in the kit (PeproTech) according to the instructions, ready for use.
# LX-2 cells were inoculated into a 6-well culture plate at a density of 2×10^5 cells/mL after cell passage. Each well contained 2 mL DMEM with 10% FBS. The cells were cultured at 37° C. in a 5% CO2 incubator, which was recorded as Day 1. After 24 h (Day 2), the cell confluence reached 70-80%, the old culture medium was discarded, and the serum-free DMEM was used to treat the cells as low serum starvation. The old culture medium was discarded at Day 3, and the culture medium or the culture medium containing different concentrations of the drug was added for continuing culture. There were control group (serum-free DMEM culture medium), TGFβ1 group, TGFβ1+ compound group. The TGFβ1 working concentration was 10 ng/mL. 24 h after the drug treatment (Day 4), the cell medium was discarded and the cells were washed once with precooled 1×PBS and then subjected to total RNA extraction.
# 2.3.1 Sample pretreatment: 1 mL of TransZOL Up reagent was added to each well of the 6-well plate, and the well plate was placed horizontally for a while to let the lysis buffer evenly spread on the cell surface and lyse the cells. The cells were blown with a pipette to make the cells completely detached. The lysate was transferred to a 2 mL RNase free centrifuge tube and repeatedly blown and sucked until no significant pieces in the lysate.
# The extracted RNA was diluted to a concentration of 0.1 μg-0.5 μg (Total RNA ≤1 μg) based on the same mass. The total RNA in the reverse transcription system of each sample in the experiment was about 500 ng.
# Two replicates were set for each sample, and the relative expression of the target gene was calculated by the program in the PCR machine.
# The threshold of the Real Time PCR result was automatically set by the Real Time PCR detector system. The relative expression of the Col1A1 gene was calculated as follows. ΔCt (Col1A1 in drug treatment group)=Avg. Ct (Col1A1 in drug treatment group)−Avg. Ct (GAPDH in drug treatment group) ΔCt (Col1A1 in TGF group)=Avg. Ct (Col1A1 in TGF group)−Avg. Ct (GAPDH in TGF group) ΔCt (Col1A1 in Control group)=Avg. Ct (Col1A1 in Control group)−Avg. Ct (GAPDH in Control group) ΔΔCt=Average value of ΔCt (Col1A1 in TGF group/drug treatment group)−ΔCt (Col1A1 in Control group)
# Formula for calculating the relative expression of Col1A1 gene: RQ=^2−ΔΔCt
# Relative quantification results were obtained by automatically analysis of ABI 7500 real-time quantitative PCR machine.
# [3] = liver, read-out: Concentration in Liver
# [4] = plasma, read-out: Concentration in Plasma
# ACC2, sequence (O00763 whole entry): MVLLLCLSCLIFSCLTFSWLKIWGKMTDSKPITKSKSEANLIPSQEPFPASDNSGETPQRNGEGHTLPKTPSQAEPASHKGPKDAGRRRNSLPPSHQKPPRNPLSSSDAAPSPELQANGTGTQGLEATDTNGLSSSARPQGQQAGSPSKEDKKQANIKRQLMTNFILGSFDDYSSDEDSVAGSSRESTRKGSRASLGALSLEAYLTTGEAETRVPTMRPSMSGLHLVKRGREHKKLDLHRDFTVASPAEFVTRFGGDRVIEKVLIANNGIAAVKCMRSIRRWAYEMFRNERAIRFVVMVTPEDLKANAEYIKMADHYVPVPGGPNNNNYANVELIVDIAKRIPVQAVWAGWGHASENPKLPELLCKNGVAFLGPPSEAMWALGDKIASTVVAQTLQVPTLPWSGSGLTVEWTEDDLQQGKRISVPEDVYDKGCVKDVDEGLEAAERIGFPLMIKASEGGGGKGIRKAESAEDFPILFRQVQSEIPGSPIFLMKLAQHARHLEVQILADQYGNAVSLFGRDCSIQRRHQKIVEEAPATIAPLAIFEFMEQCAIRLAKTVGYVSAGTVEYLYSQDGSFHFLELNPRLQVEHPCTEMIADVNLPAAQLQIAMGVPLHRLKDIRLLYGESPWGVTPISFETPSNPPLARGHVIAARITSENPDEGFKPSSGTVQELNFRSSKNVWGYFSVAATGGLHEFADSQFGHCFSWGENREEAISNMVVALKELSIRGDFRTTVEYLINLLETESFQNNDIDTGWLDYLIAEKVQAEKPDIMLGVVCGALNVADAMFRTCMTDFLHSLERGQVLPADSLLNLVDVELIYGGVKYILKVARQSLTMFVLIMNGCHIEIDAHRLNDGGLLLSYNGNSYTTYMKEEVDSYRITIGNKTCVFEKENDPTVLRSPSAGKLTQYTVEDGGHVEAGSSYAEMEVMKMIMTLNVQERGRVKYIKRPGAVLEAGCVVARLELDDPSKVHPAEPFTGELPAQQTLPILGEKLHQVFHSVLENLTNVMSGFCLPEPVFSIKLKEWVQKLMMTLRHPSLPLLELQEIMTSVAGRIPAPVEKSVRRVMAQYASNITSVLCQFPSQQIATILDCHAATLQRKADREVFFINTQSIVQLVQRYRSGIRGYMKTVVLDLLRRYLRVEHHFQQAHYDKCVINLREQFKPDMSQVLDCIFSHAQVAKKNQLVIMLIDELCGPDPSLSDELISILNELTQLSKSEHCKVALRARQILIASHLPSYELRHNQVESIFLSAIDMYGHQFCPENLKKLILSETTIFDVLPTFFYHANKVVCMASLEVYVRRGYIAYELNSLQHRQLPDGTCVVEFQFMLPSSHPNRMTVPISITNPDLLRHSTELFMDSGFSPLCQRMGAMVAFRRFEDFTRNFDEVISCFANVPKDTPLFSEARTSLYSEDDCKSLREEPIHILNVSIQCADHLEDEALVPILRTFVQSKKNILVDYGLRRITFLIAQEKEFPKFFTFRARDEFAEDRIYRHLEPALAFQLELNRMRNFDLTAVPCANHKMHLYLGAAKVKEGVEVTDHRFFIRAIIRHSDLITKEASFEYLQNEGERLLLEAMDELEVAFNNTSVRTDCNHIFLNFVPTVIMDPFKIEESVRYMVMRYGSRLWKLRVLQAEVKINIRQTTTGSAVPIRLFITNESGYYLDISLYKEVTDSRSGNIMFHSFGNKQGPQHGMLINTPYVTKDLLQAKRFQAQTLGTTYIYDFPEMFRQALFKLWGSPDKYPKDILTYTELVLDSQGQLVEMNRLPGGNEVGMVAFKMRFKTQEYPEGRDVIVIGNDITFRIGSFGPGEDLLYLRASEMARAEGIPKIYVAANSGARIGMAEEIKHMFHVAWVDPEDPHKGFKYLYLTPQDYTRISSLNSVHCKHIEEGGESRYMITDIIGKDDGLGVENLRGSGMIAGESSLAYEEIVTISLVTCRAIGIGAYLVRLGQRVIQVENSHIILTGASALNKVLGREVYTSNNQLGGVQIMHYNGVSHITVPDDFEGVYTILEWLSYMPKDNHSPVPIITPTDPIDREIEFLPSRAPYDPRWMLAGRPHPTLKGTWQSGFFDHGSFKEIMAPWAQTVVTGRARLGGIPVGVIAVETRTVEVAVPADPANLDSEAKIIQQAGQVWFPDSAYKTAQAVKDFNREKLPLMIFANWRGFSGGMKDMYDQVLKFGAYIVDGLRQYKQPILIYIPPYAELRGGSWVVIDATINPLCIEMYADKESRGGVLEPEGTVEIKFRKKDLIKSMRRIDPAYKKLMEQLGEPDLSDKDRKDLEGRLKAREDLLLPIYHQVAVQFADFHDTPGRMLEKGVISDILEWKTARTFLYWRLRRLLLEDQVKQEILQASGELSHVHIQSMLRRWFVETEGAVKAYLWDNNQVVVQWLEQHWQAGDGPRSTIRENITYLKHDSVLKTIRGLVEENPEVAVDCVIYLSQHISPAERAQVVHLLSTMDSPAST
Structure (SMILES),IC50 (ACC1) [nM],IC50 (ACC2) [nM],"concentration at 0.25 h [1, 3] [ng/g]",Kp at 0.25 h [1],"concentration at 0.25 h [1, 4] [ng/mL]",Inhibition rate (%) of relative expression of the Col1A1 gene [2] [%]
COc1ccccc1[C@H](Cn1c(=O)n(-c2cccc(C3(C(=O)O)CC3)c2)c(=O)c2c(C)c(-c3ncco3)sc21)OC1CCOCC1 [Example 56],–,–,–,–,–,105.01
"COc1ccccc1[C@H](Cn1c(=O)n([C@H]2C[C@@](C)(C(=O)O)C2)c(=O)c2c(C)c(-c3ncco3)sc21)OC1CCOCC1 [Example 4, (1S,3s)-3-(1-((R)-2-(2-methoxyphenyl)-2-((tetrahydro-2H-pyran-4-yl)oxy)ethyl)-5-methyl-6-(oxazol-2-yl)-2,4-dioxo-1,4-dihydrothieno[2,3-d]pyrimidine-3(2H)-yl)-1-methylcyclobutanecarboxylic Acid]",0.68,3.16,4830,67.1,72.8,78.54
COc1ccccc1C(Cn1c(=O)n(C(C)(C)C(=O)O)c(=O)c2c(C)c(-c3ncco3)sc21)OC1CCN(S(C)(=O)=O)CC1 (stereo not shown) [Example 22],0.63,5.13,–,–,–,–
"COc1ccccc1[C@H](Cn1c(=O)n(-c2ccc(C(=O)O)cc2)c(=O)c2c(C)c(-c3ncco3)sc21)OC1CCOCC1 [Example 24a, (R)-4-(1-(2-(2-methoxyphenyl)-2-((tetrahydro-2H-pyran-4-yl)oxy)ethyl)-5-methyl-6-(oxazol-2-yl)-2,4-dioxo-1,4-dihydrothieno[2,3-d]pyrimidin-3(2H)-yl)benzoic Acid]",–,–,–,–,–,24.50
"COc1ccccc1C(Cn1c(=O)n(C2CC(C(=O)O)C2)c(=O)c2c(C)c(-c3ncco3)sc21)OC1CCOCC1 (stereo not shown) [Example 1, 3-(1-(2-(2-methoxyphenyl)-2-((tetrahydro-2H-pyran-4-yl)oxy)ethyl)-5-methyl-6-(oxazol-2-yl)-2,4-dioxo-1,4-dihydrothieno[2,3-d]pyrimidin-3(2H)-yl)cyclobutane-1-carboxylic Acid]",0.69,5.13,4180,144,29.1,–

# Continued, in another order:
IC50 (ACC1) [nM],IC50 (ACC2) [nM],"concentration at 0.25 h [1, 3] [ng/g]",Kp at 0.25 h [1],"concentration at 0.25 h [1, 4] [ng/mL]",Structure (SMILES),Inhibition rate (%) of relative expression of the Col1A1 gene [2] [%]
3.06,5.12,3170,65.3,48.5,"COc1ccccc1C(Cn1c(=O)n(-c2ccc(C(=O)O)cc2)c(=O)c2c(C)c(-c3ncco3)sc21)OC1CCOCC1 (stereo not shown) [Example 24, 4-(1-(2-(2-methoxyphenyl)-2-((tetrahydro-2H-pyran-4-yl)oxy)ethyl)-5-methyl-6-(oxazol-2-yl)-2,4-dioxo-1,4-dihydrothieno[2,3-d]pyrimidin-3(2H)-yl)benzoic Acid]",–
1.57,7.57,3200,151,21.2,"COc1ccccc1C(Cn1c(=O)n(-c2cccc(C(=O)O)c2)c(=O)c2c(C)c(-c3ncco3)sc21)OC1CCOCC1 (stereo not shown) [Example 25, 3-(1-(2-(2-methoxyphenyl)-2-((tetrahydro-2H-pyran-4-yl)oxy)ethyl)-5-methyl-6-(oxazol-2-yl)-2,4-dioxo-1,4-dihydrothieno[2,3-d]pyrimidin-3(2H)-yl)benzoic Acid]",62.94
2.23,12.4,1460,75.5,19.3,COc1ccccc1C(Cn1c(=O)n(C2CN(C(C)=O)C2)c(=O)c2c(C)c(-c3ncco3)sc21)OC1CCOCC1 (stereo not shown) [Example 7],–
